Structures are written as SMILES. pIC50: −log10 of the molar value.

One assay has as its system mice under HF diet. Particulars: cited from earlier work.
The target in the next assay is human FABP4 (huFABP4) (Homo sapiens (Human), UniProt P15090). Description: Tb TR-FRET assay, binding of Bodipy labeled fatty acid to His6 tagged huFABP4. Particulars: 50 nM FABP protein, […] Bodipy labeled fatty acid; read-out: IC50 h-fabp4-ecoli-r.
The next assay addresses human FABP5 (huFABP5) (Homo sapiens (Human), UniProt Q01469). Description: Tb TR-FRET assay, binding of Bodipy labeled fatty acid to His6 tagged huFABP5. The following applies: 50 nM FABP protein, […] Bodipy labeled fatty acid; read-out: IC50 h-fabp5-ecoli-r. In general terms: In TR-FRET formats the signal depends on donor and acceptor labels being close together.
The next assay deals with ob/ob mice. The following applies: cited from earlier work.
The next assay deals with ApoE KO mice. Particulars: cited from earlier work.

Sequence of human FABP5 (huFABP5) (Q01469 whole entry): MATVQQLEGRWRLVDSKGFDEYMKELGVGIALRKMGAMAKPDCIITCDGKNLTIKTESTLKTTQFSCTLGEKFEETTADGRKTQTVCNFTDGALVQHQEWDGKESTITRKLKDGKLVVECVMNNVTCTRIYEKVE
Sequence of human FABP4 (huFABP4) (P15090 whole entry): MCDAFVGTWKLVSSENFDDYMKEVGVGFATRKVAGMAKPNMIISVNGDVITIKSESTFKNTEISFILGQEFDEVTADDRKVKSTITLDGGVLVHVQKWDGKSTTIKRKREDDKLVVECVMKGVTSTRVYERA

Turning to `O=C(O)[C@H]1CCCN1C(=O)Nc1ccccc1Oc1ccccc1` [Compound 3], in the assay on mice under HF diet, the “insulin and glucose tolerance” value was “no improvement”; the “plasma triglyceride and free fatty acid” value is “reduction”.
For the compound `O=C(O)[C@H]1CCCN1C(=O)Nc1c(F)cccc1-c1ccccc1` [Example 11, (R)-1-(3-fluorobiphenyl-2-ylcarbamoyl)pyrrolidine-2-carboxylic acid], the negative logarithm of the IC50 (pIC50) was 6.07 at human FABP4 (huFABP4) and below 4.30 at human FABP5 (huFABP5).
`N#Cc1cc(Cl)cc(NC(=O)N2CCC[C@@H]2C(=O)O)c1-c1ccccc1` [Example 25, (R)-1-(4-chloro-6-cyanobiphenyl-2-ylcarbamoyl)pyrrolidine-2-carboxylic acid]: the pIC50 at human FABP4 (huFABP4) was 6.72; on human FABP5 (huFABP5), 4.82.
Consider `O=C(O)[C@H]1CCN1C(=O)Nc1cc(Cl)ccc1-c1ccccc1F` [Example 37, (R)-1-(4-chloro-2′-fluorobiphenyl-2-ylcarbamoyl)azetidine-2-carboxylic acid], for which the pIC50 on human FABP4 (huFABP4) is 7.52; at human FABP5 (huFABP5), below 4.30.
Consider `COc1cc(Cl)cc(NC(=O)N2CC[C@@H]2C(=O)O)c1-c1ccc(F)cc1` [Example 64, (R)-1-(4-chloro-4′-fluoro-6-methoxybiphenyl-2-ylcarbamoyl)azetidine-2-carboxylic acid], for which the figures for the pIC50 on human FABP4 (huFABP4) and on human FABP5 (huFABP5) were 7.70 and 5.18, respectively.
The like results for `O=C(O)[C@H]1CCN1C(=O)Nc1cc(Cl)ccc1-c1cc(F)cc(F)c1` [Example 39, (R)-1-(4-chloro-3′,5′-difluorobiphenyl-2-ylcarbamoyl)azetidine-2-carboxylic acid] were, in that order, 7.22 and below 4.30.
Take `O=C(O)[C@H]1CCCN1C(=O)Nc1cc(Cl)ccc1-c1ccccc1` [Example 10, (R)-1-(4-chlorobiphenyl-2-ylcarbamoyl)pyrrolidine-2-carboxylic acid]: the pIC50 at human FABP4 (huFABP4) is 6.92; at human FABP5 (huFABP5) it was below 5.84.
In the case of `O=C(O)[C@H]1CCCN1C(=O)Nc1cc(Cl)ccc1-c1ccc(Cl)cc1` [Example 59, (R)-1-(4,4′-dichlorobiphenyl-2-ylcarbamoyl)pyrrolidine-2-carboxylic acid], the pIC50 on human FABP4 (huFABP4) is 5.68; on human FABP5 (huFABP5) it was below 4.30.
Regarding `O=C(O)[C@H]1CCCN1C(=O)Nc1cc(Cl)ccc1-c1ccc(F)cc1` [Example 54, (R)-1-(4-chloro-4′-fluorobiphenyl-2-ylcarbamoyl)pyrrolidine-2-carboxylic acid], the results for the pIC50 on human FABP4 (huFABP4) and on human FABP5 (huFABP5) were 7.22 and below 4.53, respectively.
In the same order, the values of `O=C(O)[C@H]1CSCN1C(=O)Nc1ccccc1-c1ccccc1` [Example 8, (S)-3-(Biphenyl-2-ylcarbamoyl)-thiazolidine-4-carboxylic acid] are 6.48 and below 4.30.
For the compound `Cc1cc(-c2ccccc2)c(NC(=O)N2CC[C@@H]2C(=O)O)cc1Cl` [Example 31, (R)-1-(4-chloro-5-methylbiphenyl-2-ylcarbamoyl)azetidine-2-carboxylic acid], the pIC50 on human FABP4 (huFABP4) was 7.52; on human FABP5 (huFABP5), 5.29.
As to `C=CCc1cc(Cl)cc(NC(=O)N2CCC[C@@H]2C(=O)O)c1-c1ccccc1` [Example 23, (R)-1-(6-allyl-4-chlorobiphenyl-2-ylcarbamoyl)pyrrolidine-2-carboxylic acid], the pIC50 is 6.96 on human FABP4 (huFABP4) and 5.89 at human FABP5 (huFABP5).
As for `CCc1c(-c2ccccc2)c(-c2ccccc2)nn1-c1ccccc1-c1cccc(OCC(=O)O)c1` [BMS309403], in the assay with ob/ob mice (clamp study in ob/ob mice), the “glucose uptake in muscle and adipose” value is “increased”; the hepatic glucose production entry was “reduction”. Further, in the assay on ob/ob mice (ob/ob mice), the “body weight and energy consumption” value is “no change”; the hepatic steatosis entry was “reduction”. The atherosclerotic placques formation result in the assay on ApoE KO mice is reported as “decrease”.
As to `O=C(O)[C@H]1CCN1C(=O)Nc1cc(Cl)c(F)cc1-c1ccccc1` [Example 30, (R)-1-(4-chloro-5-fluorobiphenyl-2-ylcarbamoyl)azetidine-2-carboxylic acid], the pIC50 on human FABP4 (huFABP4) was 7.70; on human FABP5 (huFABP5), 4.40.
With `O=C(O)[C@@H]1CCN1C(=O)Nc1cc(Cl)ccc1-c1ccccc1` [Example 27, (S)-1-(4-chlorobiphenyl-2-ylcarbamoyl)azetidine-2-carboxylic acid], the figures for the pIC50 at human FABP4 (huFABP4) and at human FABP5 (huFABP5) were 5.91 and below 4.30, respectively.
In the same order, the values of `O=C(O)[C@H]1CCN1C(=O)Nc1cc(Cl)ccc1-c1cccc(F)c1F` [Example 36, (R)-1-(4-chloro-2′,3′-difluorobiphenyl-2-ylcarbamoyl)azetidine-2-carboxylic acid] are 7.22 and below 4.30.
With `CCc1ccc(-c2ccccc2)c(NC(=O)N2CCC[C@@H]2C(=O)O)c1` [Example 62, (R)-1-(4-ethylbiphenyl-2-ylcarbamoyl)pyrrolidine-2-carboxylic acid], the pIC50 was 5.73 at human FABP4 (huFABP4) and below 4.30 on human FABP5 (huFABP5).
In the same order, the values of `O=C(O)[C@H]1CCCN1C(=O)Nc1cc(Cl)ccc1C1=CCCCC1` [Example 57, (R)-1-[5-chloro-2-(cyclohexen-1-yl)phenylcarbamoyl]pyrrolidine-2-carboxylic acid] are 5.96 and below 4.30.
The like results for `O=C(O)C1SCCN1C(=O)Nc1ccccc1-c1ccccc1` (stereo not shown) [Example 7, 3-(Biphenyl-2-ylcarbamoyl)-thiazolidine-2-carboxylic acid] were, in that order, 5.01 and below 4.30.
The like results for `O=C(O)[C@H]1CCCN1C(=O)Nc1ccc(Cl)cc1-c1ccccc1` [Example 2, (R)-1-(5-chlorobiphenyl-2-ylcarbamoyl)pyrrolidine-2-carboxylic acid] were, in that order, 5.69 and 4.68.
For the compound `O=C(O)[C@H]1CCCN1C(=O)Nc1ccsc1-c1ccccc1` [Example 24, (R)-1-(2-phenylthiophen-3-ylcarbamoyl)pyrrolidine-2-carboxylic acid], the pIC50 at human FABP4 (huFABP4) is 5.78; at human FABP5 (huFABP5), below 4.30.
As to `O=C(O)[C@H]1CCN1C(=O)Nc1ccccc1-c1ccccc1` [Example 28, (R)-1-(biphenyl-2-ylcarbamoyl)azetidine-2-carboxylic acid], the negative logarithm of the IC50 (pIC50) at human FABP4 (huFABP4) was 7.10; on human FABP5 (huFABP5), below 4.30.
Take `O=C(O)[C@H]1CCCN1C(=O)Nc1cc(F)ccc1-c1ccccc1` [Example 16, (R)-1-(4-fluorobiphenyl-2-ylcarbamoyl)pyrrolidine-2-carboxylic acid]: the figures for the negative-log IC50 (pIC50) on human FABP4 (huFABP4) and at human FABP5 (huFABP5) were 5.97 and below 4.30, respectively.

In general, pIC50 refers to the IC50 on a negative log10 scale, so that one unit is a factor of ten.
